The values that follow are results of earlier work, collected in US20210290548A1, “FORMULATIONS OF RALTEGRAVIR” (Merck Sharp & Dohme Corp., priority 2018, published 2021).

Structures are written as SMILES. Where two headings read alike, the source gives them in different places.

For `Cc1nnc(C(=O)NC(C)(C)c2nc(C(=O)NCc3ccc(F)cc3)c([O-])c(=O)n2C)o1.[K+]` [Raltegravir potassium, N-[(4-Fluorophenyl)methyl]-1,6-dihydro5-hydroxy-1-methyl-2-[1-methyl-1-[[(5-methyl-1,3,4-oxadiazol-2-yl)carbonyl]amino]ethyl]-6-oxo-4pyrimidinecarboxamide monopotassium salt], the solubility result runs as follows: (acetonitrile) “very slightly soluble”; (ethanol) “very slightly soluble”; (isopropanol) “insoluble”; (methanol) “slightly soluble”; (water) “soluble”.
